In paper PMC8467848 (Molecules, 2021):
Counter-ions that a name gives are not always drawn. One block for each compound: values may come before it.

What was measured:
κ-opioid receptor = target: T1, κ-opioid receptor (Mus musculus, UniProt P33534); test: biochemical; assay type: binding
T1 construct: performed on mouse brain homogenates; from tissue; host or cells: mouse brain membranes / homogenates

δ-opioid receptor = target: T2, δ-opioid receptor (Mus musculus, UniProt P32300); test: biochemical; assay type: binding
T2 construct: performed on mouse brain homogenates; from tissue; host or cells: mouse brain membranes / homogenates

μ-opioid receptor = target: T3, μ-opioid receptor (Mus musculus, UniProt P42866); test: biochemical; assay type: binding
T3 construct: performed on mouse brain homogenates in the presence of ^3H-DAMGO for μ-receptor; from tissue; host or cells: mouse brain membranes / homogenates
T3 sequence (P42866 whole entry): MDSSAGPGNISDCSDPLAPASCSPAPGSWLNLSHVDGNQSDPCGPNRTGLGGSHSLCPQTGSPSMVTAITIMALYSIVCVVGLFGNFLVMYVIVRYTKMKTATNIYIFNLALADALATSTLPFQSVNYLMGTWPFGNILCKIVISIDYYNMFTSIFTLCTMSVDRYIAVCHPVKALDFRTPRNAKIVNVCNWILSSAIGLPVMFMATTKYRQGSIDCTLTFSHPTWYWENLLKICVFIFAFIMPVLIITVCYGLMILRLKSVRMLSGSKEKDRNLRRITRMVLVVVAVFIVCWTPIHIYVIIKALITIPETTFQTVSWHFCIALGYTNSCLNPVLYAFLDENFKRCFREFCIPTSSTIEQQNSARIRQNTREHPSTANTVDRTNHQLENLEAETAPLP

T1 sequence (P33534 whole entry): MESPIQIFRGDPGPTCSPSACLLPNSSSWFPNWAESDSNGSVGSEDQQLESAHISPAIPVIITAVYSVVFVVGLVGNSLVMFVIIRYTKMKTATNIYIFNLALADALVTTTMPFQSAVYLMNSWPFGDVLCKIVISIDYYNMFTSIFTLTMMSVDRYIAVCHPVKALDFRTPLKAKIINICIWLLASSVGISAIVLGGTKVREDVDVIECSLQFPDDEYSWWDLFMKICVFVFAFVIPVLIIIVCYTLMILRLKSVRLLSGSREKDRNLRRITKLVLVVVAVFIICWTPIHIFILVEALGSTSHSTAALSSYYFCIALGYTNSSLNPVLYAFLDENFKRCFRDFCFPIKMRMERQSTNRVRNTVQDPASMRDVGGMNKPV
T2 sequence (P32300 whole entry): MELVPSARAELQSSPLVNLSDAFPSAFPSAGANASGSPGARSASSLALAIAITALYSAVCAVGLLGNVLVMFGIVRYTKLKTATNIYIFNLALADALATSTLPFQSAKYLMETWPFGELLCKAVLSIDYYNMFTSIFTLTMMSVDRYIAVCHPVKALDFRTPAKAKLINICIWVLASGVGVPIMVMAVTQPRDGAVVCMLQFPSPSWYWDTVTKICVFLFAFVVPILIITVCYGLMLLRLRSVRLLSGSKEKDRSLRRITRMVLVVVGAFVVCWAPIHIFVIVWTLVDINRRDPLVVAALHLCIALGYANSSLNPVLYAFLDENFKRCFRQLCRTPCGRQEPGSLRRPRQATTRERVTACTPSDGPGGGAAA

SMILES: CCC(=O)N1C2CCC3C1CCC2N3Cc1ccc2ccccc2n1 [Compound 58, 2-Propionyl-7-(quinolyn-2-ylmethyl)-2,7-diazatricyclo[4.2.0.0^3,8]decane]
Ki (κ-opioid receptor): > 1000 nM
Ki (δ-opioid receptor): > 1000 nM
Ki (μ-opioid receptor): 490 ± 46 nM

SMILES: CCC(=O)N1C2CCC3C1CCC2N3Cc1cc2ccccc2[nH]1 (as salt: hydrochloride) [Compound 54, 2-Propionyl-7-(1H-indol-2-ylmethyl)-2,7-diazatricyclo[4.4.0.0^3.8]decane]
melting point: 54 °C

SMILES: CCC(=O)N1C2CCC1C1CCC2N1Cc1cnc2ccccc2n1 (as salt: hydrochloride) [Compound 59, 9-Propionyl-10-(quinoxalyn-2-ylmethyl)-9,10-diazatricyclo[4.2.1.1^2,5]decane]
melting point: 128 °C

SMILES: CCC(=O)N1C2CCC3C1CCC2N3CC=C1CCc2cc(Br)ccc21 (as salt: hydrochloride)
melting point: 177 to 179 °C

SMILES: CCC(=O)N1C2CCC1C1CCC2N1CC=C1CCc2cc(Br)ccc21 (as salt: hydrochloride)
melting point: 167 to 170 °C

SMILES: CCC(=O)N1C2CCC1C1CCC2N1CC=C1CCc2ccccc21 (as salt: hydrochloride)
melting point: 132 to 134 °C

SMILES: CCC(=O)N1C2CCC1C1CCC2N1Cc1cnc2ccccc2n1 [Compound 59, 9-Propionyl-10-(quinoxalyn-2-ylmethyl)-9,10-diazatricyclo[4.2.1.1^2,5]decane]
Ki (κ-opioid receptor): > 1000 nM
Ki (δ-opioid receptor): > 1000 nM
Ki (μ-opioid receptor): > 1000 nM

SMILES: CCC(=O)N1C2CCC1C1CCC2N1Cc1cc2ccccc2[nH]1 [Compound 53, 9-Propionyl-10-(1H-indol-2-ylmethyl)-9, 10-diazatricyclo[4.2.1.1^2.5]decane]
Ki (κ-opioid receptor): > 1000 nM
affinity towards κ-receptors in words (κ-opioid receptor): negligible affinity
Ki (δ-opioid receptor): > 1000 nM
affinity towards δ-receptors in words (δ-opioid receptor): negligible affinity
Ki (μ-opioid receptor): 22 ± 3 nM
μ-affinity / binding in words (μ-opioid receptor): nanomolar range

SMILES: CCC(=O)N1C2CCC1C1CCC2N1Cc1cc2ccccc2[nH]1 (as salt: hydrochloride) [Compound 53, 9-Propionyl-10-(1H-indol-2-ylmethyl)-9, 10-diazatricyclo[4.2.1.1^2.5]decane]
melting point: 106 °C

SMILES: CCC(=O)N1C2CCC3C1CCC2N3Cc1cc2ccccc2[nH]1 [Compound 54, 2-Propionyl-7-(1H-indol-2-ylmethyl)-2,7-diazatricyclo[4.4.0.0^3.8]decane]
Ki (κ-opioid receptor): > 1000 nM
Ki (δ-opioid receptor): > 1000 nM
Ki (μ-opioid receptor): 500 ± 45 nM
fold lower μ-affinity compared to its isomer (μ-opioid receptor): 23 fold

The next lines start with the values.

melting point: 179 to 181 °C
SMILES: CCC(=O)N1C2CCC3C1CCC2N3CC=C1CCc2cc(Cl)ccc21 (as salt: hydrochloride)

melting point: 170 to 173 °C
SMILES: CCC(=O)N1C2CCC1C1CCC2N1CC=C1CCc2cc(Cl)ccc21 (as salt: hydrochloride)

melting point: 181 to 183 °C
SMILES: CCC(=O)N1C2CCC1C1CCC2N1CC=C1CCc2cc(F)ccc21 (as salt: hydrochloride)

melting point: 167 to 170 °C
SMILES: CCC(=O)N1C2CCC3C1CCC2N3CC=C1CCc2ccccc21 (as salt: hydrochloride)

melting point: 131 to 133 °C
SMILES: CCC(=O)N1C2CCC3C1CCC2N3CC=C1CCc2cc(F)ccc21 (as salt: hydrochloride) [Compound 25, 2-Propionyl-7-[(E)-1-(2-(5-fluoro-2,3-dihydro-1H-inden-1-ylidene)ethyl]-2,7-diazatricyclo[4.2.0.0^3,8]decane]
